Test results taken from patent US20230263822A1, “MODULATION OF FACTOR 11 EXPRESSION” (Ionis Pharmaceuticals, Inc., priority 2008, published 2023).
Strand notation (5' to 3'): a small letter for the sugar, then the base; units joined by * are phosphorothioate-linked, units joined directly phosphodiester-linked; [ ] holds rarer units or linkages, { } end groups; capitals alone tell only the bases. e = 2'-O-(2-methoxyethyl) (MOE); [5mC] = 5-methylcytosine; d = 2'-deoxy (DNA)

Legend:
[1] = tested on: blood coagulation; assay: PT and aPTT assay in cynomolgus monkeys (Example 46); assay type: in vivo; conditions: for PT ratio (INR) / aPTT ratio relative to PBS group: platelet poor plasma, relative to PBS group; for aPTT: cynomolgus monkeys, 25 mg/kg
Experimental: Groups, each consisting of two male and two female monkeys, were injected subcutaneously with 25 mg/kg of ISIS 416850, ISIS 449709, ISIS 445522, ISIS 449710, ISIS 449707, ISIS 449711, ISIS 449708, 416858, and ISIS 445531. Antisense oligonucleotide was administered to the monkeys at 25 mg/kg three times per week for week 1 and 25 mg/kg twice per week for weeks 2 to 8. A control group, consisting of two male and two female monkeys was injected subcutaneously with PBS according to the same dosing regimen. Body weights were taken 14 days and 7 days before the start of treatment and were then measured weekly throughout the treatment period. Blood samples were collected 14 days and 5 days before the start of treatment and subsequently several times during the dosing regimen for PT and aPTT measurements, and measurement of various hematologic factors. On day 55, the monkeys were euthanized by exsanguination while under deep anesthesia, and organs harvested for further analysis.
PT and aPTT were measured using platelet poor plasma (PPP) from […] treated with ISIS oligonucleotides. PT and aPTT values are provided in Tables 148 and 149 and are reported as International Normalized Ratio (INR) values. INR values for PT and aPTT were determined by dividing the PT or aPTT value for each experimental group by the PT or aPTT for the PBS treated group. This ratio was then raised to the power of the International Sensitivity Index (ISI) of the tissue factor used. […] Therefore, antisense reduction of Factor 11 with these ISIS oligonucleotides is useful for inhibiting the formation of a thrombus or clot in response to an abnormal vessel wall, but not in response to tissue injury.

[2] = tested on: Factor 11 protein; assay: Factor 11 protein in monkey plasma by sandwich ELISA (Example 46); assay type: in vivo, cynomolgus monkeys; conditions: cynomolgus monkeys, 25 mg/kg
Outline: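 Monkeys (2 male, 2 female per group) dosed s.c. with antisense oligonucleotide at 25 mg/kg, three times weekly in week 1 then twice weekly through week 8; PBS controls. Plasma Factor 11 measured by sandwich ELISA (1:50 dilution, OPD, 490 nm); expressed as % reduction versus PBS.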

ISIS 416850: MOE gapmer, nucleobases 1275 to 1318 of SEQ ID NO: 1 (Table 8) (antisense TGCACAGTTTCTGGCAGGCC; MOE gapmer, wing and gap sizes not given here)
PT ratio (INR) ([1]; Day 10): 0.99
aPTT ratio relative to PBS group ([1]; Day 10): 0.98
PT ratio (INR) ([1]; Day 17): 1.00
aPTT ratio relative to PBS group ([1]; Day 17): 1.01
PT ratio (INR) ([1]; Day 24): 0.97
aPTT ratio relative to PBS group ([1]; Day 24): 1.05
PT ratio (INR) ([1]; Day 31): 1.00
aPTT ratio relative to PBS group ([1]; Day 31): 1.22
PT ratio (INR) ([1]; Day 38): 1.01
aPTT ratio relative to PBS group ([1]; Day 38): 1.25
PT ratio (INR) ([1]; Day 45): 1.00
aPTT ratio relative to PBS group ([1]; Day 45): 1.34
PT ratio (INR) ([1]; Day 52): 1.02
aPTT ratio relative to PBS group ([1]; Day 52): 1.32
PT ratio (INR) ([1]; Day 55): 1.07
aPTT ratio relative to PBS group ([1]; Day 55): 1.45
PT ratio (INR) ([1]; Day −5): 1.00
aPTT ratio relative to PBS group ([1]; Day −5): 0.90
PT ratio (INR) ([1]; Day −14): 1.02
aPTT ratio relative to PBS group ([1]; Day −14): 0.99
aPTT [1]: significantly prolonged
Factor 11 protein levels in plasma [2]: time-dependent decrease in protein levels

ISIS 416858: MOE gapmer, nucleobases 1275 to 1318 of SEQ ID NO: 1 (Table 8) (antisense ACGGCATTGGTGCACAGTTT; MOE gapmer, wing and gap sizes not given here)
PT ratio (INR) ([1]; Day 10): 0.96
aPTT ratio relative to PBS group ([1]; Day 10): 1.07
PT ratio (INR) ([1]; Day 17): 0.98
aPTT ratio relative to PBS group ([1]; Day 17): 1.13
PT ratio (INR) ([1]; Day 24): 0.95
aPTT ratio relative to PBS group ([1]; Day 24): 1.21
PT ratio (INR) ([1]; Day 31): 1.00
aPTT ratio relative to PBS group ([1]; Day 31): 1.32
PT ratio (INR) ([1]; Day 38): 0.97
aPTT ratio relative to PBS group ([1]; Day 38): 1.41
PT ratio (INR) ([1]; Day 45): 1.00
aPTT ratio relative to PBS group ([1]; Day 45): 1.49
PT ratio (INR) ([1]; Day 52): 0.99
aPTT ratio relative to PBS group ([1]; Day 52): 1.53
PT ratio (INR) ([1]; Day 55): 1.01
aPTT ratio relative to PBS group ([1]; Day 55): 1.61
PT ratio (INR) ([1]; Day −5): 0.96
aPTT ratio relative to PBS group ([1]; Day −5): 0.96
PT ratio (INR) ([1]; Day −14): 1.01
aPTT ratio relative to PBS group ([1]; Day −14): 1.03
aPTT [1]: significantly prolonged
Factor 11 protein levels in plasma [2]: time-dependent decrease in protein levels

ISIS 445522: 5-8-5 or 6-8-6 MOE microwalk gapmer (Table 44) (antisense eG*e[5mC]*eA*e[5mC]*eA*dG*dT*dT*dT*d[5mC]*dT*dG*dG*e[5mC]*eA*eG*eG*e[5mC])
PT ratio (INR) ([1]; Day 10): 0.95
aPTT ratio relative to PBS group ([1]; Day 10): 1.06
PT ratio (INR) ([1]; Day 17): 0.96
aPTT ratio relative to PBS group ([1]; Day 17): 1.10
PT ratio (INR) ([1]; Day 24): 0.94
aPTT ratio relative to PBS group ([1]; Day 24): 1.14
PT ratio (INR) ([1]; Day 31): 0.96
aPTT ratio relative to PBS group ([1]; Day 31): 1.25
PT ratio (INR) ([1]; Day 38): 0.97
aPTT ratio relative to PBS group ([1]; Day 38): 1.32
PT ratio (INR) ([1]; Day 45): 0.96
aPTT ratio relative to PBS group ([1]; Day 45): 1.39
PT ratio (INR) ([1]; Day 52): 0.98
aPTT ratio relative to PBS group ([1]; Day 52): 1.39
PT ratio (INR) ([1]; Day 55): 1.01
aPTT ratio relative to PBS group ([1]; Day 55): 1.42
PT ratio (INR) ([1]; Day −5): 0.94
aPTT ratio relative to PBS group ([1]; Day −5): 0.91
PT ratio (INR) ([1]; Day −14): 1.00
aPTT ratio relative to PBS group ([1]; Day −14): 0.96
aPTT [1]: significantly prolonged
Factor 11 protein levels in plasma [2]: time-dependent decrease in protein levels

ISIS 449709: 3-8-3, 4-8-4, 2-10-2, 3-10-3 or 4-10-4 MOE microwalk gapmer (Table 46) (antisense eG*e[5mC]*eA*e[5mC]*dA*dG*dT*dT*dT*d[5mC]*dT*dG*dG*d[5mC]*eA*eG*eG*e[5mC])
PT ratio (INR) ([1]; Day 10): 0.95
aPTT ratio relative to PBS group ([1]; Day 10): 0.99
PT ratio (INR) ([1]; Day 17): 0.95
aPTT ratio relative to PBS group ([1]; Day 17): 1.03
PT ratio (INR) ([1]; Day 24): 0.95
aPTT ratio relative to PBS group ([1]; Day 24): 1.05
PT ratio (INR) ([1]; Day 31): 0.95
aPTT ratio relative to PBS group ([1]; Day 31): 1.08
PT ratio (INR) ([1]; Day 38): 0.97
aPTT ratio relative to PBS group ([1]; Day 38): 1.08
PT ratio (INR) ([1]; Day 45): 0.97
aPTT ratio relative to PBS group ([1]; Day 45): 1.15
PT ratio (INR) ([1]; Day 52): 0.99
aPTT ratio relative to PBS group ([1]; Day 52): 1.09
PT ratio (INR) ([1]; Day 55): 1.03
aPTT ratio relative to PBS group ([1]; Day 55): 1.17
PT ratio (INR) ([1]; Day −5): 0.96
aPTT ratio relative to PBS group ([1]; Day −5): 0.91
PT ratio (INR) ([1]; Day −14): 1.00
aPTT ratio relative to PBS group ([1]; Day −14): 0.99
Factor 11 protein levels in plasma [2]: time-dependent decrease in protein levels
